“And” between values parts separate entries of the source, which are not always exact repeats. Equal entries are not always repeated. Structures can show the parent of a compound that is named as a salt. Where two headings read alike, the source gives them in different places.
Test system: H9 cells
Experiment: qHTS for survival of dissociated H9 cells (CellTiter-Glo, 24 hours after seeding)
Type: cell-based, human
Source text: FIG. 2 schematically illustrates qHTS procedure.
All the screed compounds were received pre-plated at the pre-determined concentrations. […] Curve classification is explained in Huang et al. “Chemical genomics profiling of environmental chemical modulation of human nuclear receptors” Environ. Health. Perspect.

[1] = H9 cell survival normalized to 10 μM Y-27632 (taken to be 100%)
[2] = H9 cell survival, CellTiter-Glo 24 hours after seeding; read-out: AC50 (concentration at 50% efficacy)
[3] = H9 cell survival, normalized to 10 μM Y-27632
[4] = Homo sapiens, H9, 24 h, H9 cell survival normalized to 10 μM Y-27632 (taken to be 100%); read-out: Max (maximum activity value from all tested concentrations)
[5] = Homo sapiens, H9, 24 h, H9 cell survival, CellTiter-Glo 24 hours after seeding; read-out: AC50 (concentration at 50% efficacy)
[6] = Homo sapiens, H9, 24 h, H9 cell survival, normalized to 10 μM Y-27632; read-out: Efficacy (activity range between predicted activities at zero and infinite doses, Hill equation)
[7] = Homo sapiens, H9, 24 h; read-out: Efficacy (activity range between predicted activities at zero and infinite doses, Hill equation)
[8] = Homo sapiens, H9, 24 h; read-out: Max (maximum activity value from all tested concentrations)
[9] = Homo sapiens; H9 cell survival, CellTiter-Glo 24 hours after seeding; read-out: AC50 (concentration at 50% efficacy)

| Molecule | Max (maximum activity value from all tested concentrations) [1] | AC50 [2] | Efficacy (activity range between predicted activities at zero and infinite doses, Hill equation) [3] | Emax [4] [%] | Emax [6] [%] | also measured |
| --- | --- | --- | --- | --- | --- | --- |
| N#Cc1cc(-c2ccnc(Nc3ccc(N4CCOCC4)cc3)n2)ccc1OC1CCOCC1 [IKK epsilon-IN-1] | 28.74% | 14.7 µM | 30.6 | – | – | – |
| CC1(C)[C@@H](O[C@H]2O[C@H](C(=O)O)[C@@H](O)[C@H](O)[C@H]2O[C@@H]2O[C@H](C(=O)O)[C@@H](O)[C@H](O)[C@H]2O)CC[C@]2(C)[C@H]3C(=O)C=C4[C@@H]5C[C@@](C)(C(=O)O)CC[C@]5(C)CC[C@@]4(C)[C@]3(C)CC[C@@H]12.N [GLYCYRRHIZIC ACID. AMMONIUM SALT] | 23.95% | 14.7 µM | 26 | – | – | – |
| CN1CCN(c2nc(C3=C(c4c[nH]c5ccccc45)C(=O)NC3=O)c3ccccc3n2)CC1 [Sotrastaurin] | – | – | – | 35.9 | 36.5 | AC50 [5]: 16.6 µM |
| CC(C)(C)c1nc(-c2cccc(NS(=O)(=O)c3c(F)cccc3F)c2F)c(-c2ccnc(N)n2)s1 [Dabrafenib] | – | – | – | 22 | 21.7 | AC50 [5]: 14.8 µM |
| NC[C@@](O)(c1ccc(Cl)cc1)c1ccc(-c2cn[nH]c2)cc1 [AT-13148] | – | – | – | 89.8 | 64.5 | AC50 [5]: 0.104 µM |
| Cc1sc2c(c1C)C(c1ccc(Cl)cc1)=N[C@@H](CC(=O)NCCCCNC(=O)COc1cccc3c1C(=O)N(C1CCC(=O)NC1=O)C3=O)c1nnc(C)n1-2 (stereo partly shown) [dBETI] | 62.14% | 0.004 µM | −67.9 | – | – | – |
| Cc1cc2c(cc1CC(=O)c1sccc1S(=O)(=O)[N-]c1onc(C)c1Cl)OCO2.[Na+] [Sitaxenian sodium] | 21.69% | 26.1 µM | 27.1 | – | – | – |
| C[C@@H](N)c1ccc(C(=O)Nc2ccnc3[nH]ccc23)cc1 [Y-39983] | – | – | – | 127 | 121 | – |
| O=C1NC(=O)C(=O)C(=O)N1 [ALLOXAN] | – | – | – | – | – | Emax [7]: 27.2%; Emax [8]: 22.4%; AC50 [9]: 5.21 µM |
| N#Cc1cccc(-c2c[nH]c3ncnc(N4CCOCC4)c23)c1 [PF-06447475] | 42.8% | 16.5 µM | 44.6 | – | – | – |
| CC1(C)CC[C@]2(C(=O)O)CC[C@]3(C)C(=CC[C@@H]4[C@@]5(C)CC[C@H](O)C(C)(C)[C@@H]5CC[C@]43C)[C@@H]2C1 [Oleanolic acid] | – | – | – | 20.3 | -10.7 | AC50 [5]: 0.37 µM |
| CC1(C)CC[C@]2(C(=O)O[C@@H]3O[C@H](CO[C@@H]4O[C@H](CO)[C@@H](O)[C@H](O)[C@H]4O[C@@H]4O[C@H](CO)[C@H](O)[C@H](O)[C@H]4O)[C@@H](O)[C@H](O[C@@H]4O[C@H](CO)[C@@H](O)[C@H](O)[C@H]4O)[C@H]3O)CC[C@]3(C)C(=CCC4[C@@]5(C)CC[C@H](O[C@@H]6OC[C@@H](O)[C@H](O)[C@H]6O)[C@@](C)(C(=O)O)C5CC[C@]43C)[C@@H]2C1 (stereo partly shown) [NCGC00384798-01] | 38.81% | – | 0 | – | – | – |
| COCCOc1ccc2c(c1)ncn2-c1ccc2cccc(N3CCC(N)CC3)c2n1 [CP-673451] | – | – | – | 35.6 | 0 | – |
| CN(C)CCOc1cc(-c2cn[nH]c2)ccc1NC(=O)C1COc2ccccc2O1 (stereo not shown) [SR-3677] | – | 0.662 µM | – | 122 | 118 | AC50 [5]: 0.585 µM |
| NC1(Cc2ccc(Cl)cc2)CCN(c2ncnc3[nH]ccc23)CC1 [CCT-128930] | 106.8% | 11.8 µM | 133 | – | – | – |
| CC(C)(C)c1nc2c3cc[nH]c(=O)c3c3cc(F)ccc3c2[nH]1 [Pyridone 6] | 28.9% | – | 0 | – | – | – |
| (−)-Indolactam V | 51.21% | 0.833 µM | 45.5 | – | – | – |
| CN1CCN(c2cccc(Nc3nc4c(-c5ccc(S(C)(=O)=O)cc5)cccn4n3)c2)CC1 [CEP-33779] | 27.79% | 5.9 µM | 25.5 | – | – | – |
| CNc1nccc(-c2cccnc2Oc2cc(C(=O)Nc3cccc(C(F)(F)F)c3)ccc2C)n1 [AMG-Tie2-1] | 57.84% | 18.7 µM | 54.5 | – | – | – |
| Cn1c(=O)c2c(ncn2CC2OCCO2)n(C)c1=O [Doxofylline] | – | – | – | – | – | AC50 [5]: 0.521 µM; Emax (Homo sapiens, H9, 24 h, read-out: Efficacy (activity range between predicted activities at zero and infinite doses, Hill equation)): 12.1%; Emax (Homo sapiens, H9, 24 h, read-out: Max (maximum activity value from all tested concentrations)): 22.5% |
| Cc1cc(Nc2cc(NC(=O)c3c(Cl)cccc3Cl)ccn2)nc(N)n1 [RO495] | 89.28% | 4.69 µM | 73.1 | – | – | – |

| Molecule | Max (maximum activity value from all tested concentrations) [1] | AC50 [2] | Efficacy (activity range between predicted activities at zero and infinite doses, Hill equation) [3] | Emax [4] [%] | Emax [6] [%] | also measured |
| --- | --- | --- | --- | --- | --- | --- |
| O=C(O)Cc1cc(I)c(Oc2cc(I)c(O)c(I)c2)c(I)c1 [TETRAC] | – | – | – | 34.2 | 35.8 | AC50 [5]: 14.7 µM |
| C[S+]([O-])c1ccc(-c2nc(-c3ccncc3)c(-c3ccc(F)cc3)[nH]2)cc1 (stereo not shown) [SB-203580] | – | – | – | – | – | Emax [7]: 37.4%; Emax [8]: 35.6%; AC50 [9]: 15.2 µM |
| CNS(=O)(=O)C[C@H]1CC[C@H](N(C)c2ncnc3[nH]ccc23)CC1 [Oclacitinib (PF-03394197), Oclacitinib] | – | – | – | 93.8 | 99.9 | AC50 [5]: 20.8 µM |
| Cc1c(O)c(O)cc2c1CC=C1[C@@]2(C)CC[C@@]2(C)[C@@H]3C[C@](C)(C(=O)O)CC[C@]3(C)CC[C@]12C [DIHYDROCELASTROL] | – | – | – | – | – | Emax [7]: 26.1%; Emax [8]: 21.2%; AC50 [9]: 14.7 µM |
| O=C(Nc1ccc(-c2ccncc2)cc1)N[C@H](CO)c1ccccc1 [AS 1892802] | 117.5% | 1.31 µM | 115 | – | – | – |
| CN(C)c1ccc(Nc2nc(N)n(C(=O)c3c(F)cccc3F)n2)cc1 [NCGC00244250] | 58.27% and 40.04% | 6.56 µM and 8.33 µM | 23.7 and 39.3 | – | – | – |
| CCC[C@@]1(CCc2ccccc2)CC(O)=C([C@H](CC)c2cccc(NS(=O)(=O)c3ccc(C(F)(F)F)cn3)c2)C(=O)O1 [Tipranavir] | – | – | – | – | – | Emax [7]: 26.5%; Emax [8]: 21.8%; AC50 [9]: 26.1 µM |
| CCCC1(C)C(C#N)(C#N)C1(C#N)C#N [CCG-2046] | 21.78% | 20.6 µM | 23.7 | – | – | – |
| CCS(=O)(=O)N1CCN(c2ccc(Nc3ncc(C(N)=O)c(NC4CC4)n3)cc2)CC1 [Cerdulatinib] | – | – | – | 39 | 33.6 | AC50 [5]: 2.93 µM |
| C[C@@H]1O[C@@H](OC2C(O[C@H]3[C@H](O[C@H]4CC[C@@]5(C)C(CC[C@]6(C)C5CC=C5C7CC(C)(C)CC(O)[C@]7(C)CC[C@]56C)C4(C)C)O[C@H](C(=O)O)[C@@H](O)[C@@H]3O)OC(CO)C(O)C2O)[C@H](O)[C@H](O)[C@H]1O (stereo partly shown) [NCGC00381003-01] | 22.06% | 2.48 µM | 24.5 | – | – | – |
| Cc1[nH]c2ccccc2c1CCNC(=O)c1cccs1 [CK-636] | 47.74% | – | 0 | – | – | – |
| O=S(=O)(c1cccc2cnccc12)N1CCCNCC1 [Fasudil hydrochloride] | – | – | – | 107 | 127 | AC50 [5]: 33.2 µM |
| c1ccc2c3c([nH]c2c1)CNCC3 [tryptoline] | – | – | – | 27.9 | -33.1 | AC50 [5]: 0.0009 µM |
| O=S(=O)(c1cccc2cnccc12)N1CCNCC1 [HA-100] | 88.17% | 7.31 µM | 88.9 | – | – | – |
| N#CC[C@H](C1CCCC1)n1cc(-c2ncnc3[nH]ccc23)cn1 [Ruxolitinib] | – | 8.26 µM and 11.8 µM | – | – | – | – |
| CNCCC(Oc1ccc(C(F)(F)F)cc1)c1ccccc1 (stereo not shown) [Fluoxetine hydrochloride] | – | – | – | 70.4 | 0 | – |
| C/C=C(/C)C(=O)O[C@H]1C(C)=C[C@]23C(=O)[C@@H](C=C(CO)[C@@H](O)[C@]12O)[C@H]1[C@@H](C[C@H]3C)C1(C)C [Ingenol mebutate] | – | – | – | – | – | Emax [7]: 41.4%; Emax [8]: 57.6%; AC50 [9]: 0.118 µM |
| O=S(=O)(NCC1CC1)c1ccc(Nc2nccc(N3CCCc4cc(O)ccc43)n2)cc1 [Pyrintegrin] | 27.85% | 3.29 µM | 31 | – | – | – |
| CC(C)CCC(=O)CC1c2ccccc2C(=O)N1c1ccc2ccc(Cl)nc2n1 (single isomer, unassigned; (+)) [(+)-Pagoclone] | 22.94% | – | 0 | – | – | – |
| COC(=O)c1cc(Br)cnc1N1CCC(NC2CCCCC2)C(O)C1 (stereo not shown) [NCGC00386932-01] | 22.59% | 0.004 µM | −26.5 | – | – | – |

Source: patent publication US20210348119A1, “COMPOSITIONS AND METHODS FOR CELL CULTURE” (The United States of America as Represented By The …, priority 2018, published 2021)
